Test results: PubChem BioAssay (NCI)
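Five compound concentrations were applied to cells in 96-well plates for 48 hours; endpoints were derived by simple linear interpolation of the resulting dose-response curve. The concentration for full growth arrest is given as TGI.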

Assays:
Assay in all cases: NCI tumour cell line growth inhibition, 48 h
[1] = system: HCC-2998 colon
[2] = system: MALME-3M melanoma
[3] = system: RXF-631 renal
[4] = system: U251 CNS
[5] = system: OVCAR-4 ovarian
[6] = system: SF-539 CNS
[7] = system: RPMI-8226 leukemia
[8] = system: MOLT-4 leukemia
[9] = system: CCRF-CEM leukemia
[10] = system: TK-10 renal
[11] = system: XF 498 CNS
[12] = system: SF-268 CNS
[13] = system: ACHN renal
[14] = system: A498 renal
[15] = system: OVCAR-8 ovarian
[16] = system: SK-MEL-5 melanoma
[17] = system: 786-0 renal
[18] = system: A549 NSCLC
[19] = system: NCI-H460 lung
[20] = system: OVCAR-5 ovarian
[21] = system: HOP-62 NSCLC
[22] = system: NCI-H226 lung
[23] = system: SNB-75 CNS
[24] = system: SN12C renal
[25] = system: CAKI-1 renal
[26] = system: LXFL 529 NSCLC
[27] = system: DMS 273 small cell lung
[28] = system: OVCAR-3 ovarian
[29] = system: EKVX NSCLC
[30] = system: KM12 colon
[31] = system: SK-MEL-28 melanoma
[32] = system: K-562 leukemia
[33] = system: SW-620 colon
[34] = system: COLO 205 colon
[35] = system: DMS 114 small cell lung
[36] = system: NCI-H23 lung
[37] = system: SF-295 CNS
[38] = system: HCT-116 colon
[39] = system: IGROV1 ovarian
[40] = system: RXF 393 renal
[41] = system: HT29 colon
[42] = system: DLD-1 colon
[43] = system: UO-31 renal
[44] = system: HOP-18 NSCLC
[45] = system: SK-MEL-2 melanoma
[46] = system: SR leukemia
[47] = system: M19-MEL melanoma
[48] = system: UACC-62 melanoma
[49] = system: KM20L2 colon
[50] = system: HCT-15 colon
[51] = system: UACC-257 melanoma
[52] = system: HL-60(TB) leukemia
[53] = system: HOP-92 NSCLC
[54] = system: SK-OV-3 ovarian
[55] = system: SNB-78 CNS
[56] = system: SNB-19 CNS
[57] = system: M14 melanoma
[58] = system: LOX IMVI melanoma
[59] = system: NCI-H522 lung

Cc1[nH]c2ccccc2c1C1=NO/C(=N\O)C(c2c(C)[nH]c3ccccc23)C1 (stereo unspecified)
TGI [1]: > 100 µM
TGI [2]: > 100 µM
TGI [3]: > 100 µM
TGI [4]: > 100 µM
TGI [5]: > 100 µM
TGI [6]: > 80.3 µM
TGI [7]: > 100 µM
TGI [8]: 69.6 µM
TGI [9]: > 100 µM
TGI [10]: > 100 µM
TGI [11]: > 100 µM
TGI [12]: > 100 µM
TGI [13]: > 91.1 µM
TGI [14]: > 100 µM
TGI [15]: > 100 µM
TGI [16]: > 31.6 µM
TGI [17]: > 100 µM
TGI [18]: > 100 µM
TGI [19]: > 67.6 µM
TGI [20]: > 100 µM
TGI [21]: 64.6 µM
TGI [22]: > 100 µM
TGI [23]: > 100 µM
TGI [24]: > 100 µM
TGI [25]: > 100 µM
TGI [26]: > 100 µM
TGI [27]: > 100 µM
TGI [28]: 70.7 µM
TGI [29]: > 100 µM
TGI [30]: > 100 µM
TGI [31]: > 100 µM
TGI [32]: > 100 µM
TGI [33]: > 100 µM
TGI [34]: 41 µM
TGI [35]: > 100 µM
TGI [36]: > 100 µM
TGI [37]: > 100 µM
TGI [38]: > 78.5 µM
TGI [39]: > 100 µM
TGI [40]: 87.1 µM
TGI [41]: 58.9 µM
TGI [42]: > 100 µM
TGI [43]: > 80.5 µM
TGI [44]: > 100 µM
TGI [45]: > 100 µM
TGI [46]: > 78.7 µM
TGI [47]: > 100 µM
TGI [48]: 62.7 µM
TGI [49]: 50.5 µM
TGI [50]: > 100 µM
TGI [51]: > 100 µM
TGI [52]: 54 µM
TGI [53]: > 78.5 µM
TGI [54]: > 100 µM
TGI [55]: > 100 µM
TGI [56]: > 100 µM
TGI [57]: > 89.6 µM

CN(C)CCN(C)C(=O)c1cccc2cccc(C(=O)O)c12
TGI [1]: > 100 µM
TGI [2]: > 100 µM
TGI [3]: > 100 µM
TGI [4]: > 100 µM
TGI [5]: > 100 µM
TGI [6]: > 100 µM
TGI [7]: > 100 µM
TGI [8]: > 100 µM
TGI [9]: > 100 µM
TGI [10]: > 100 µM
TGI [11]: > 100 µM
TGI [12]: > 100 µM
TGI [13]: > 100 µM
TGI [14]: > 100 µM
TGI [15]: > 100 µM
TGI [16]: > 100 µM
TGI [17]: > 100 µM
TGI [18]: > 100 µM
TGI [19]: > 100 µM
TGI [20]: > 100 µM
TGI [21]: > 100 µM
TGI [22]: > 100 µM
TGI [23]: > 100 µM
TGI [24]: > 100 µM
TGI [26]: > 100 µM
TGI [27]: > 100 µM
TGI [28]: > 100 µM
TGI [29]: > 100 µM
TGI [31]: > 100 µM
TGI [32]: > 100 µM
TGI [33]: > 100 µM
TGI [34]: > 100 µM
TGI [35]: > 100 µM
TGI [36]: > 100 µM
TGI [37]: > 100 µM
TGI [38]: > 100 µM
TGI [39]: > 100 µM
TGI [40]: > 100 µM
TGI [41]: > 100 µM
TGI [42]: > 100 µM
TGI [43]: > 100 µM
TGI [44]: > 100 µM
TGI [45]: 38.7 µM
TGI [46]: > 100 µM
TGI [47]: > 100 µM
TGI [48]: > 100 µM
TGI [49]: > 100 µM
TGI [50]: > 100 µM
TGI [51]: > 100 µM
TGI [52]: > 100 µM
TGI [53]: > 100 µM
TGI [54]: > 100 µM
TGI [55]: > 100 µM
TGI [56]: > 100 µM
TGI [58]: > 100 µM
TGI [57]: > 100 µM

C[C@]12CCc3nonc3C1CC[C@@H]1C2CC[C@@]2(C)C1CC[C@@H]2O (stereo partly specified)
TGI [1]: > 100 µM
TGI [2]: > 100 µM
TGI [3]: > 100 µM
TGI [4]: > 100 µM
TGI [5]: > 100 µM
TGI [6]: > 100 µM
TGI [7]: > 100 µM
TGI [8]: > 100 µM
TGI [9]: > 100 µM
TGI [10]: > 100 µM
TGI [11]: > 100 µM
TGI [12]: > 100 µM
TGI [13]: > 100 µM
TGI [14]: > 100 µM
TGI [15]: > 100 µM
TGI [16]: > 100 µM
TGI [17]: > 100 µM
TGI [18]: > 100 µM
TGI [19]: > 100 µM
TGI [20]: > 100 µM
TGI [21]: > 100 µM
TGI [22]: > 100 µM
TGI [23]: > 100 µM
TGI [24]: > 100 µM
TGI [25]: > 100 µM
TGI [26]: > 100 µM
TGI [27]: > 100 µM
TGI [28]: > 100 µM
TGI [29]: > 100 µM
TGI [30]: > 100 µM
TGI [31]: > 100 µM
TGI [32]: > 100 µM
TGI [33]: > 100 µM
TGI [34]: > 100 µM
TGI [35]: > 100 µM
TGI [36]: > 100 µM
TGI [37]: > 100 µM
TGI [39]: > 100 µM
TGI [59]: > 100 µM
TGI [40]: > 100 µM
TGI [41]: > 100 µM
TGI [42]: > 100 µM
TGI [43]: > 100 µM
TGI [44]: > 100 µM
TGI [45]: > 100 µM
TGI [47]: > 100 µM
TGI [48]: > 100 µM
TGI [49]: > 100 µM
TGI [50]: > 100 µM
TGI [51]: > 100 µM
TGI [52]: > 100 µM
TGI [53]: > 100 µM
TGI [54]: > 100 µM
TGI [55]: > 100 µM
TGI [56]: > 100 µM
TGI [58]: > 100 µM
TGI [57]: > 100 µM

Cn1ccc(=NS(=O)(=O)c2ccccc2)cc1
TGI [1]: > 100 µM
TGI [2]: > 100 µM
TGI [3]: > 100 µM
TGI [4]: > 100 µM
TGI [6]: > 100 µM
TGI [7]: > 100 µM
TGI [8]: > 100 µM
TGI [9]: > 100 µM
TGI [10]: > 100 µM
TGI [11]: > 100 µM
TGI [12]: > 100 µM
TGI [13]: > 100 µM
TGI [14]: > 100 µM
TGI [15]: > 100 µM
TGI [16]: > 100 µM
TGI [17]: > 100 µM
TGI [18]: > 100 µM
TGI [19]: > 100 µM
TGI [20]: > 100 µM
TGI [21]: > 100 µM
TGI [23]: > 100 µM
TGI [26]: > 100 µM
TGI [27]: > 100 µM
TGI [28]: > 100 µM
TGI [29]: > 100 µM
TGI [30]: > 100 µM
TGI [31]: > 100 µM
TGI [32]: > 100 µM
TGI [33]: > 100 µM
TGI [34]: > 100 µM
TGI [35]: > 100 µM
TGI [36]: > 100 µM
TGI [37]: > 100 µM
TGI [38]: > 100 µM
TGI [39]: > 100 µM
TGI [59]: > 100 µM
TGI [40]: > 100 µM
TGI [41]: > 100 µM
TGI [42]: > 100 µM
TGI [43]: > 100 µM
TGI [44]: > 100 µM
TGI [45]: > 100 µM
TGI [47]: > 100 µM
TGI [49]: > 100 µM
TGI [51]: > 100 µM
TGI [52]: > 100 µM
TGI [53]: > 100 µM
TGI [54]: > 100 µM
TGI [55]: > 100 µM
TGI [56]: > 100 µM
TGI [58]: > 100 µM
